From PMC10616201, “Antioxidant and α-glucosidase inhibitory activities of compound isolated from Stachytarpheta jamaicensis (L) Vahl. leaves” (Scientific Reports, 2023)

Biological target: T1, α-glucosidase (EC 3.2.1.20; rat intestinal acetone powder)
T1 construct: gene Si; crude supernatant of rat intestinal acetone powder (Sigma 1639) in normal saline; native, unpurified; maltase activity read as glucose release
Experiment: glucose release from maltose, glucose kit, absorbance […] nm
Format: biochemical
Conditions: 10 mM maltose, 0.1 M buffer pH 6.9, 10 min, crude rat intestinal supernatant

- α-Glucosidase inhibition / IC50: 537.79 ± 45.04 µg/mL
Structure (SMILES): COC(=O)C1=CO[C@@H](O[C@@H]2O[C@H](CO)[C@@H](O)[C@H](O)[C@H]2O)[C@H]2[C@]1(O)[C@H](O)C[C@]2(C)O [compound 1, 6β-hydroxyipolamiide]
